# Results from patent US20080167571A1, “DETERMINATION OF TREATMENT RESULTS PRIOR TO TREATMENT OR AFTER FEW TREATMENT EVENTS” (priority 2006, published 2008).
# How the values were obtained:
# [1] = in vivo; cited from earlier work
# [2] = Neuropsychological and neurophysiological testing of AEDs, double-blind randomized two period crossover; assay type: in vivo, healthy adult volunteers
# Text: The purpose of the underlying study was to evaluate the neuropsychological and neurophysiological effects of the AED carbamazepine (CBZ), and the AED levitiracetam (LEV) in healthy subjects, employing a double-blind, two period crossover design (Meador et al., 2007). In accordance with the present invention, data at non-drug baseline sessions predicted which subjects would have the most negative effects of CBZ.
# A total of 28 healthy adult volunteers without history of neurological or psychiatric diseases completed the protocol (17 women; 11 men; mean age=33 years, range=18-51). All subjects remained free of centrally active prescription medications throughout the study.
# The study employed a double-blind, randomized, two period crossover design. Subjects were screened and tested at the non-drug baseline.
# Subsequently, they were randomly assigned to receive either AED. Each AED was administered over eight weeks, which included a titration period and a one month maintenance period. Each AED treatment period was followed by a four day taper and a washout period for the remainder of the four weeks. Then, subjects were treated with the other AED for eight weeks followed by a final four week washout period.
# CBZ was given at 200 mg/day for the first week, 200 mg/day bid for the 2nd week, then adjusted to midrange anticonvulsant blood levels (ABLs) at tid dosages. LEV was begun at 500 mg/day for two weeks, then increased to 500 mg bid for two weeks, then increased to 1000 mg bid.
# Subjects underwent neuropsychological and neurophysiological testing on six occasions (i.e., two AED conditions and four non-drug conditions) over 25 weeks. Test sessions occurred at week one before drug administration, at week nine after four weeks of titration and maintenance on the first drug for four weeks, at week 21 after 4 weeks of wash out, 4 weeks of titration on drug 2 and 4 weeks maintenance on drug 2, and at week 25 after 4 weeks of washout.
# Patient data was obtained in accordance with procedures set forth in U.S. Pat. Nos. 6,947,790; 6,434,419 and 5,295,491; in this embodiment EEG data was obtained simultaneously with the subject taking a test battery of attention demanding tasks, for example a set of psychometric tasks.
# Data was obtained from a verbal episodic memory task consisting of a word presentation phase, during which subjects had to indicate whether each word contained 1 or 2 syllables, and a delayed recognition phase in which subjects had to indicate whether each word had been presented earlier. A working memory task was presented in between these two phases, and acted as a distracter task. During the first repetition of this sequence, the working memory task was a low-load 1-back task, and during the second repetition, the working memory task was a high-load 2-back task. A number of standard neuropsychological and subjective rating scales were also administered. Test sessions lasted about an hour.
# [3] = Post-drug EEG and subjective scale measures (LDA neurocognitive drug response score); assay type: in vivo, healthy adult volunteers; conditions: post-drug vs non-drug baseline
# Text: Using the data and methods described in Example 1, we determined how a combination of post-drug EEG and the subject's subjective scale measures quantifies the response to carbamazepine. Accordingly, a stepwise linear discriminant analysis (LDA) was used to generate a neurocognitive drug response score for each subject, reflecting the magnitude of neurocognitive response to the drug as compared with the non-drug baseline. The sensitivity and specificity in detecting the effect of the drug were both 100%. Three variables were used in the LDA, of which two were EEG and one was a subjective scale measure. The EEG variables were occipito-parietal 2-10 Hz EEG power in all tasks (relative weight 0.6) which increased consequent to CBZ, peak alpha frequency in all tasks (relative weight 0.3) which decreased consequent to CBZ, and self-reported fatigue rating on the Profile of Mood Scale (POMS, Jacobson et al., 1978) (relative weight 0.3) which increased consequent to CBZ.
# [4] = Symbol Digits Modality Test (SDMT) after taking CBZ; assay type: in vivo, healthy adult volunteers
# Text: The SDMT is a standard neuropsychological test of “executive function” and includes complex scanning, visual tracking, and agility components. These non-drug baseline values of task performance, EEG, and evoked potential variables that were most sensitive to the effects of CBZ were used as candidate independent predictor variables. Stepwise multiple linear regression analysis was used to identify which of these candidate independent predictor variables at baseline best predicted the change in the SDMT after taking CBZ.
# [5] = EEG with 1-back working memory task during methylphenidate dose titration in pediatric ADHD; assay type: in vivo, patients diagnosed with ADHD
# Experimental: Fourteen patients diagnosed with ADHD and clinically classified by a physician specialist in ADHD as MPH-responders (patients who would benefit from taking MPH) completed the protocol (11 males, 3 females; age range 8-18, mean 11.3, standard deviation 3.1). All patients weighed more than 25 kg.
# Patients received one week each of placebo (0 mg), 5 mg, 10 mg, 15 mg, and 20 mg daily doses of MPH for a total of five weeks, according to a fully counterbalanced, placebo-controlled, double-blind design. In this example EEG data was obtained concurrent with selected attention demanding tasks. […] Accordingly, an EEG computer-based examination was obtained simultaneously with the subject taking a test battery of attention demanding tasks, for example a set of psychometric tasks. Such data was obtained once a week, 1-3 hours post-ingestion of the prescribed dose for that week. Examinations were administered approximately the same time of day and on the same day of the week during the dose titration period. The protocol used in this study included a low-load simple reaction time task (SRT) task and a higher-load 1-back working memory (WM) task in sessions lasting about half an hour.
# Analysis focused on the 1-back working memory task whose performance and EEG signals were most affected by MPH A divergence-based multivariate feature selection and pattern classification algorithm (for convenience called the neuroworkload meter—Gevins and Smith, 2003; Smith, Gevins, et al, 2001) was employed to choose and weight an optimal subset of features to characterize the MPH response.
# A set of candidate 1-back WM performance and attention-sensitive EEG features most affected by varying MPH doses was selected based on the prior statistical analyses of the average of the MPH doses followed by visual inspection of the grand averaged EEG power spectra and evoked potential data. Feature subsets were limited to a maximum of four variables because of the small number of subjects in the experiment. […]
compound,measurement,setting,value
CC1(C)O[C@@H]2[C@@H](CO[C@@]3(COS(N)(=O)=O)OC(C)(C)O[C@@H]23)O1 [topiramate],2-6 Hz EEG power,[1],increased
same,working memory task performance,[1],adversely affected
"NC(=O)N1c2ccccc2C=Cc2ccccc21 [CBZ, carbamazepine]",variables worse compared to the non-drug average,"[2]; CBZ 36 of 55, LEV 4 of 33",65%
same,low frequency (<10 Hz) EEG power,[2]; after one month maintenance,increase
same,occipito-parietal 2-10 Hz EEG power in all tasks,[3],increased
same,peak alpha frequency in all tasks,[3],decreased
same,self-reported fatigue rating on the Profile of Mood Scale (POMS),[3],increased
same,subjects with a decline in SDMT score of at least 15%,[4]; 28 subjects,Six of the 28 subjects
same,average decline in SDMT,"[4]; actual, across the 28 subjects, p<0.0003",6.7%
"CC[C@@H](C(N)=O)N1CCCC1=O [LEV, levetiracetam]",untoward neuropsychological and neurophysiological effects,[2]; in vivo,fewer untoward neuropsychological and neurophysiological effects than did CBZ
same,"variables with significant differences between the AEDs, all in favor of LEV",[2]; in vivo,42%
same,variables worse compared to the non-drug average,[2]; in vivo,12%
"COC(=O)C(c1ccccc1)C1CCCCN1 (stereo not drawn) [MPH, methylphenidate]",dose-response relationship across patients,"[5]; 0, 5, 10, 15, 20 mg daily, one week each",did not reveal any systematic dose-response relationship
same,effect size (Cohen's d) of four-variable equation score,[5]; 20 mg vs placebo,2.12
same,"effect size (Cohen's d), dose with the highest score vs placebo",[5]; two-dose test analysis,3.43
